{"source": "paper PMC7505085", "about": "(ACS chemical biology, 2015)", "key": {"T. b. brucei": {"tested_on": "T. b. brucei", "assay": "growth inhibitory activity against axenic T. b. brucei parasites", "assay_type": "cell-based, Trypanosoma brucei", "details": "highest concentration tested 10 μM; for IC50: read-out: IC50 T. b. brucei"}, "T98G cells": {"tested_on": "T98G cells", "assay": "cytotoxicity in mammalian cells", "assay_type": "cell-based", "details": "read-out: IC50 mammalian cells"}, "HeLa cells": {"tested_on": "HeLa cells", "assay": "cytotoxicity in mammalian cells", "assay_type": "cell-based", "details": "read-out: IC50 mammalian cells"}, "[1]": {"details": "HAT treatment; cited from earlier work"}}, "note": "Like-named read-outs stand apart in the source and are kept apart here."}
{"compound": "CC1=CC=CC[C@H](C)NC(=O)C=CC=CC=C[C@H](C)[C@@H](O)[C@H](O)[C@@H](O)C[C@@H](O)/C=C\\C=CC(C)=C1", "note": "[Lobosamide A]", "values": [{"measurement": "antitrypanosomal activity (in words)", "setting": "T. b. brucei", "result": "sub-micromolar"}, {"measurement": "IC50", "setting": "T. b. brucei", "result": 0.8, "unit": "µM"}, {"measurement": "IC50", "setting": "T98G cells", "result": "> 66", "unit": "µM"}]}
{"compound": "CC1=CC=CC[C@H](C)NC(=O)C=CC=CC=C[C@H](C)[C@@H](O)[C@H](O)[C@@H](O)C[C@@H](O)/C=C/C=CC(C)=C1", "note": "[Lobosamide B]", "values": [{"measurement": "IC50", "setting": "T. b. brucei", "result": 6.1, "unit": "µM"}, {"measurement": "IC50", "setting": "T. b. brucei; listed as B", "result": "< 10", "unit": "µM"}, {"measurement": "IC50", "setting": "T98G cells", "result": "> 66", "unit": "µM"}]}
{"compound": "CC1=CC=CC[C@H](C)NC(=O)C=CC=CC=C[C@H](C)[C@@H](O)C[C@@H](O)C[C@@H](O)/C=C\\C=CC(C)=C1", "note": "[Lobosamide C]", "values": [{"measurement": "antitrypanosomal activity (in words)", "setting": "T. b. brucei", "result": "inactive"}, {"measurement": "IC50", "setting": "T. b. brucei", "result": "> 10", "unit": "µM"}, {"measurement": "IC50", "setting": "HeLa cells", "result": "> 33", "unit": "µM"}]}
{"compound": "CC1=CC=CC=CC[C@H](C)NC(=O)C=CC=CC=CC[C@@H](O)[C@H](O)[C@@H](O)C[C@@H](O)C=CC=C1", "note": "[Mirilactam A]", "values": [{"measurement": "antitrypanosomal activity (in words)", "setting": "T. b. brucei", "result": "lack of activity"}, {"measurement": "IC50", "setting": "T. b. brucei", "result": "> 10", "unit": "µM"}]}
{"compound": "CC1=CC=CC=CC[C@H](C)NC(=O)C=CC=CC=CC[C@@H](O)C[C@@H](O)C[C@@H](O)C=CC=C1", "note": "[Mirilactam B]", "values": [{"measurement": "IC50", "setting": "T. b. brucei", "result": "> 10", "unit": "µM"}, {"measurement": "IC50", "setting": "HeLa cells", "result": "> 33", "unit": "µM"}]}
{"compound": "Nc1nc(N)nc(Nc2ccc([As]3SCC(CO)S3)cc2)n1", "note": "(centres unmarked) [melarsoprol]", "values": [{"measurement": "drug-induced death rate", "setting": "[1]", "result": 5, "unit": "%"}]}
